Values quoted from earlier work in patent publication US20140162261A1, “DETECTION KIT FOR IDENTIFYING GENOTYPE IN DEPRESSION PATIENTS AND METHOD OF USING THE SAME” (priority 2012, published 2014).

Assays:
[1] = target: T1, striatal dopamine D2 receptors (Homo sapiens, UniProt P14416); conditions: 4 mg dose
T1 construct: host or cells: striatum (in vivo)

depression patients = conditions: SSRIs in combination with low-dose risperidone (0.5-1 mg/day), in 1-2 days
[2] = oral administration

T1 sequence (P14416 whole entry): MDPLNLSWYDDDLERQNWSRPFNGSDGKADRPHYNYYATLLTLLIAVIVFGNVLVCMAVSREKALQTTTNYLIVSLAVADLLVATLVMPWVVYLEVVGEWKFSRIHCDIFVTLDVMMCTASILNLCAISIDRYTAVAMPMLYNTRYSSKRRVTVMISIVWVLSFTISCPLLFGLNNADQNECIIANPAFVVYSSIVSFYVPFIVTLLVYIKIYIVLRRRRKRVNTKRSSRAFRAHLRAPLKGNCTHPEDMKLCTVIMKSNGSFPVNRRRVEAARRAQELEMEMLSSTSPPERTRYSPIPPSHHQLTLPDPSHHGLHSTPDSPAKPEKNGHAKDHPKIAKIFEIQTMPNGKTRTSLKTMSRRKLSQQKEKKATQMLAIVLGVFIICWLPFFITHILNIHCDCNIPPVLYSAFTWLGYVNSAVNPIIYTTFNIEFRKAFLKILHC

In the case of `Cc1nc2n(c(=O)c1CCN1CCC(c3noc4cc(F)ccc34)CC1)CCCC2` [Risperidone], the “binding with cholinergic receptors” value (cholinergic receptors) is listed as “does not bind”, the “affinity for α2-adrenergic receptors” value (α2-adrenergic receptors) is listed as “low affinity” and the “blockade of striatal dopamine D2 receptors” value [1] is listed as 70-80%. For the same compound, the “improvement of patients' symptoms” value (depression patients) was “significantly improve most of the patient's symptoms” and the “effect of food on digestion (absorption)” value [2] was “not affected by food”.
